This is an account of results in article PMC7088272 (Biotechnology Letters, 2016).

A value given as a limit tells only on which side of the number the result lay.

Assay [1] deals with T1, ZIKV NS2B-NS3^pro (Zika virus, UniProt A0A024B7W1). Kind of assay: FRET-based inhibition assay of ZIKV NS2B-NS3pro protease. The format is biochemical. Conditions: for inhibition at 100 µM: pH 7, 100 µM inhibitor.
Assay [2] deals with T1, ZIKV NS2B-NS3^pro. Kind of assay: Inhibitor kinetic study. The format is biochemical.
The mark [3] stands for this setting: 26 μM FRET substrate, 8.7 μg enzyme, 50 mM Tris/HCl pH 7.0, 25 °C, 11 min.

T1 sequence (A0A024B7W1 1421-1469): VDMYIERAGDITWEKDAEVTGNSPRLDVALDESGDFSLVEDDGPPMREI
T1 sequence (A0A024B7W1 1503-1688): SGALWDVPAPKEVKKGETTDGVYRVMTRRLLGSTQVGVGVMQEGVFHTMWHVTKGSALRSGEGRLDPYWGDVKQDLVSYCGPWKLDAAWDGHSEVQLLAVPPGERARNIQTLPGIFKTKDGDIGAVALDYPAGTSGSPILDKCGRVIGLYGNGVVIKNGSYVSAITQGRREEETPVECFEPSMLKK

Usually Ki stands for a dissociation constant, usually derived from enzyme kinetics or from competition with a known ligand. Turning to `O=c1c(O)c(-c2cc(O)c(O)c(O)c2)oc2cc(O)cc(O)c12` [Myricetin], the “Inhibition (%)” value at ZIKV NS2B-NS3^pro [1] (100 µM inhibitor, 26 μM FRET substrate, 8.7 μg enzyme, 50 mM Tris/HCl pH 7.0, 25 °C, 11 min) is listed as “more than 40%”. At ZIKV NS2B-NS3^pro [2], this compound came in with a Ki of 8.9 ± 1.9 µM. Further, the inhibition type entry against ZIKV NS2B-NS3^pro [2] (Lineweaver–Burk and Dixon plots, inhibitor 0–50 µM, substrate 10–50 µM) is “mixed type”.
The term inhibition denotes how much of the control response was suppressed. A low value points to a weak effect. At ZIKV NS2B-NS3^pro [1] (setting [3]), `O=C(O[C@@H]1Cc2c(O)cc(O)cc2O[C@@H]1c1ccc(O)c(O)c1)c1cc(O)c(O)c(O)c1` [Epicatechin gallate] gave an inhibition at 100 µM greater than 40%.
`C[C@@H]1O[C@@H](O[C@H]2[C@H](Oc3cc(O)c4c(c3)O[C@H](c3ccc(O)cc3)CC4=O)O[C@H](CO)[C@@H](O)[C@@H]2O)[C@H](O)[C@H](O)[C@H]1O` [Naringin]: the “inhibitory activity against ZIKV NS2B-NS3^pro (in words)” value at ZIKV NS2B-NS3^pro [1] (100 µM inhibitor) was “weak inhibitory activities”.
With `C[C@@H]1O[C@@H](OC[C@H]2O[C@@H](Oc3c(-c4ccc(O)c(O)c4)oc4cc(O)cc(O)c4c3=O)[C@H](O)[C@@H](O)[C@@H]2O)[C@H](O)[C@H](O)[C@H]1O` [Rutin], on ZIKV NS2B-NS3^pro [1] (setting [3]), the inhibition at 100 µM is greater than 40%.
As a reminder, the IC50 is the concentration at which inhibition is half-maximal. Read a high IC50 as a need for much substance. At ZIKV NS2B-NS3^pro [1], `O=c1cc(-c2ccc(O)c(O)c2)oc2cc(O)cc(O)c12` [Luteolin] gave an IC50 of 53 ± 1.3 µM. For the same compound, on ZIKV NS2B-NS3^pro [1] (setting [3]), the inhibition at 100 µM was greater than 40%. Moreover, the “inhibition activity compared to chrysin” value at ZIKV NS2B-NS3^pro [1] (ratio of inhibition at 100 µM) is 2.8 times.
Compound `O=c1c(O[C@@H]2O[C@H](CO)[C@@H](O)[C@H](O)[C@H]2O)c(-c2ccc(O)cc2)oc2cc(O)cc(O)c12` [Astragalin] displayed an IC50 on ZIKV NS2B-NS3^pro [1] of 112 ± 5.5 µM. Also, the inhibition at 100 µM on ZIKV NS2B-NS3^pro [1] (setting [3]) is greater than 40%.
With `O=C(O[C@@H]1Cc2c(O)cc(O)cc2O[C@H]1c1cc(O)c(O)c(O)c1)c1cc(O)c(O)c(O)c1` [Gallocatechin gallate], 99 ± 1.8 µM corresponded to half-maximal inhibition against ZIKV NS2B-NS3^pro [1] (IC50). On ZIKV NS2B-NS3^pro [1] (setting [3]), the inhibition at 100 µM is greater than 40%.
